The experiment addresses T1, 5-LO (Homo sapiens, UniProt P09917).
T1 sequence (P09917 1-674): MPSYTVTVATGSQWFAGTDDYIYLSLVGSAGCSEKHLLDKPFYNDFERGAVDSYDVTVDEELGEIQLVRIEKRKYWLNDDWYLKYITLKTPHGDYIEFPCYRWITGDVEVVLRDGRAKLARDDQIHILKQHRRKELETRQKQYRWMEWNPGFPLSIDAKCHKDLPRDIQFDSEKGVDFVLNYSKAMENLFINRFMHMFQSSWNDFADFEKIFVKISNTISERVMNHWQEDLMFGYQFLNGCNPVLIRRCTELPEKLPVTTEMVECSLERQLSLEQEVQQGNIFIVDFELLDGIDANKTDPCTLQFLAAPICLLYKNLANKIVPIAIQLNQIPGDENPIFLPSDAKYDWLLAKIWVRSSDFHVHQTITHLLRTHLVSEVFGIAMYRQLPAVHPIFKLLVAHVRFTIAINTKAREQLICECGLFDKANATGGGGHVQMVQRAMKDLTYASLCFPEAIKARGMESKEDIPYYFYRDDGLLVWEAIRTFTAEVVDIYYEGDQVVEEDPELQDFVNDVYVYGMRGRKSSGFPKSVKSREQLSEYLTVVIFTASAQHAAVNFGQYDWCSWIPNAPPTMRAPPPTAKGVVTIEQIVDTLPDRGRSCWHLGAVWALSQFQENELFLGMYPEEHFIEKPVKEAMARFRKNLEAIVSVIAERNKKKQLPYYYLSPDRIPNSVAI
Kind of experiment: Activity of purified human recombinant 5-LO (cell-free). It is filed as biochemical. Set-up: made in house; host or cells: E. coli Bl21 (DE3). As for the experimental part:
E. coli Bl21 (DE3) cells were transformed with pT3–5LO plasmid to express human recombinant 5-LO, which was purified by affinity chromatography on an ATP-agarose column. In brief, E. coli was lysed in 50 mM triethanolamine/HCl pH 8.0 plus EDTA (5 mM), soybean trypsin inhibitor (60 µg/ml), phenylmethanesulphonyl fluoride (1 mM), dithiothreitol (1 mM), and lysozyme (1 mg/ml). After sonication (3 × 15 s), the homogenate was centrifuged at 10,000 × g for 15 min and the supernatant again at 40,000 × g for 70 min at 4 °C. The supernatant was applied to an ATP-agarose column (Sigma-Aldrich), and the column was washed with (i) PBS pH 7.4, 1 mM EDTA, (ii) 50 mM phosphate buffer pH 7.4, 0.5 M NaCl, 1 mM EDTA, and (iii) 50 mM phosphate buffer pH 7.4, 1 mM EDTA. 5-LO was eluted with 50 mM phosphate buffer pH 7.4, 1 mM EDTA, 20 mM ATP.
Purified 5-LO (0.5 µg) in PBS pH 7.4 containing EDTA (1 mM) and ATP (1 mM) was pre-incubated with LCMs for 10 min at 4 °C, pre-warmed for 30 s at 37 °C and 5-LO product formation was started by addition of AA (Sigma-Aldrich; 20 µM if not indicated otherwise) plus CaCl2 (2 mM). […] AA was added after incubation for 5 min on ice.

Regarding `Cc1c(C)c2c(c(C)c1O)CC[C@@](C)(CCCC(C)CCCC(C)CCCC(C)C(=O)O)O2` (stereo partly drawn) [4a, 13-((2R)-6-hydroxy-2,5,7,8-tetramethylchroman-2-yl)-2,6,10-trimethyltridecanoic acid], the IC50 (in general, the concentration that gives 50% inhibition) was determined as 270 ± 10 nM.
